Source: US12551471B2, “ABT-751 and ionizing radiation” (Stichting Het Nederlands Kanker Instituut-Antoni van …, priority 2020, dated 2026)
Entries after “also recorded” stand apart in the source; their conditions may differ.

Tests used:
[1] = Animal weights throughout efficacy studies; format: in vivo; conditions: mice bearing orthotopic GSC457, U87 or GBM8 tumors
Description: Finally, to investigate whether the mitotic enrichment strategy using ABT-751 induced toxicity in healthy tissues we studied several parameters.

[2] = tested on: tumor cells from various origins; experiment: Clonogenic assays with ionizing radiation (radiosensitization); format: cell-based
Protocol: Using clonogenic assays, we confirmed that induction of mitotic enrichment by ABT-751 radiosensitizes tumor cells from various origins. To achieve induction of mitotic enrichment, we exposed cells to 1 μM of ABT-751 for 6 hours, at which time we exposed cells to a dose range of ionizing radiation (FIG. 4A). Directly after irradiation, we washed ABT-751 away and waited for 18 hours before the process was repeated. In total, the process of induction of mitotic enrichment and subsequent irradiation was repeated 4 times to resemble a clinical hyperfractionation schedule. After the last fraction, cells were left to grow out into viable colonies and clonogenic potential was quantified. […] In the first set-up, we irradiated cells prior to exposure to ABT-751 (FIG. 5A). In the second approach, we irradiated cells prematurely after only 1 hour of exposure to ABT-751 while maintaining the total exposure time of ABT-751 at 6 hours (FIG. 5B).

[3] = Plasma and brain concentration after oral administration (LC-MS/MS); format: in vivo; conditions: mice, oral 50 mg/kg
Protocol: In order to facilitate the in vivo translation of the radiosensitization approach, we first established the dose level that achieved clinically relevant plasma concentrations in mice. Using a validate LC-MS/MS method, we measured the plasma concentration—time curve in mice following oral administration of 50 mg/kg ABT-751 in formulation containing DMSO:Cremophor EL:H2O (1:1:8).

[4] = tested on: GSC457 tumors and healthy surrounding brain tissue; experiment: Immunohistochemistry for DNA damage and apoptosis markers, on-treatment samples, orthotopic GSC457 tumors; format: in vivo, mice; conditions: ABT-751 prior to radiotherapy
[5] = tested on: GSC457 brain cancer cells; experiment: Mitotic enrichment (p-H3 immunohistochemistry) in orthotopic GSC457 brain tumors; format: in vivo, mice
Protocol: To study the pharmacokinetic-pharmacodynamic relationship of ABT-751 in vivo, we made use of a genetically engineered mouse model-derived brain cancer model that was previously established in our lab. We implanted these GSC457 brain cancer cells in the brains of recipient mice and followed up their growth using bioluminescence imaging. When full-blown tumors had established, we treated tumor-bearing mice with different doses of ABT-751 and collected their brains 6 hours or 24 hours after administration. […] We next aimed to confirm whether repeated induction of mitotic enrichment was feasible and efficient in vivo. Using the same murine brain cancer model as described above, we quantified the number of mitotic cells in tumors 6 hours after administration of one dose of 50 mg/kg of ABT-751 and compared the levels to those in tumors 6 hours after receiving a second administration of 50 mg/kg of ABT-751 either 24 or 48 hours after the first administration. We again confirmed that mitotic enrichment can efficiently be induced by ABT-751 in brain cancer in vivo (FIG. 8). […] In the clinic, the standard-of-care for glioblastoma—the most common and aggressive adult brain cancer—involves ionizing radiation and concomitant alkylating chemotherapy using temozolomide. Therefore, we next confirmed that induction of mitotic enrichment in vivo using ABT-751 is compatible with chemo-radiotherapy.

GBM8 tumors = experiment: Radiosensitization efficacy study, orthotopic GBM8 model; format: in vivo, mice
Protocol: Mice bearing these GBM8 tumors were stratified between 5 treatment arms: • 1. Control treatment, • 2. 100 mg/kg daily ABT-751 for 4 days/week for 6 consecutive weeks • 3. 4 […] Gy of ionizing radiotherapy (RT) for 4 days/week for 6 consecutive weeks • 4. ABT-751 given 6 hours prior to RT for 4 days/week for 6 consecutive weeks • 5. RT administered prior to ABT-751 for 4 days/week for 6 consecutive weeks
(§1) The growth of these tumors could be followed up using bioluminescence imaging.

[6] = tested on: U87 human brain cancer cell line; experiment: Radiosensitization efficacy study, orthotopic U87 model; format: in vivo, mice
Description: This U87 model is more intrinsically radiosensitive and was therefore irradiated with fractions of 1 Gy instead of 4 Gy as used above.

[7] = tested on: cancer cell lines of various origins (brain, colorectal, prostate, head & neck and cervical cancer); experiment: Flow cytometric cell cycle analysis (propidium iodide and phospho-histone H3 staining); format: cell-based
Protocol: We first studied whether ABT-751 increases the mitotic population of cancer cell lines (FIG. 1). Several lines of various origins—brain, colorectal, prostate, head & neck and cervical cancer—were exposed to a dose range of ABT-751 and incubated for 6 hours, after which the cell cycle was analyzed by flow cytometry. […] This analysis confirmed that ABT-751 dose-dependently increases the mitotic population of cancer cell lines at the expense of the relatively radio-resistant G1 population. […] This shift in cell cycle distribution will hereafter be referred to as induction of mitotic enrichment. […] Importantly, the G2 phase of the cell cycle is unaffected. […] In the first set-up, we irradiated cells prior to exposure to ABT-751 (FIG. 5A). In the second approach, we irradiated cells prematurely after only 1 hour of exposure to ABT-751 while maintaining the total exposure time of ABT-751 at 6 hours (FIG. 5B).

GSC457 tumors = experiment: Radiosensitization efficacy study, orthotopic GSC457 tumors; format: in vivo, mice; conditions: 4 weeks
Protocol: The first model is described above and was also used to study the […] relationship in FIGS. 7-9. Mice bearing these GSC457 tumors were stratified between 5 treatment arms: • 1. Control treatment, • 2. 50 mg/kg daily ABT-751 for 4 days/week for 4 consecutive weeks • 3. 4 Gy of ionizing radiotherapy (RT) for 4 days/week for 4 consecutive weeks • 4. ABT-751 given 6 hours prior to RT for 4 days/week for 4 consecutive weeks • 5. RT administered prior to ABT-751 for 4 days/week for 4 consecutive weeks
as §1

[8] = tested on: various cancer cell lines; experiment: Cell survival assay; format: cell-based; conditions: 1 μM ABT-751, up to 10 hours of exposure
Description: Importantly, induction of mitotic enrichment could be achieved without inducing cytotoxicity.

[9] = cells irradiated prior to exposure to ABT-751
[10] = healthy surrounding brain tissue
[11] = ABT-751 6 hours prior to RT, versus radiotherapy
[12] = ABT-751 alone, 100 mg/kg daily, 4 days/week, 6 weeks
[13] = dose range of ABT-751, incubated for 6 hours
[14] = two brain cancer cell lines, 1 μM for up to 8 hours, washed away, followed until 48 hours

COc1ccc(S(=O)(=O)Nc2cccnc2Nc2ccc(O)cc2)cc1 [ABT-751, N-[2-(4-hydroxyanilino)-3-pyridinyl]-4-methoxybenzenesulfonamide]
weight of mice [1]: no treatment-related weight loss
clonogenic potential (radiosensitization) ([2]; 1 μM ABT-751 for 6 hours before ionizing radiation, repeated 4 times): radiosensitizes cancer cells of various origins
clonogenic potential (radiosensitization) ([2]; cells irradiated after only 1 hour of exposure, total exposure 6 hours): In neither of the sequences radiosensitizing effects of ABT-751 were observed
clonogenic potential (radiosensitization) [2, 9]: In neither of the sequences radiosensitizing effects of ABT-751 were observed
concentration in the brain ([3]; 8 hours after administration, 50 mg/kg): still in the range of the concentration that is sufficient to induce mitotic enrichment in vitro; also recorded: supersede the concentration required to achieve mitotic enrichment in vitro for up to 8 hours
plasma concentration ([3]; DMSO:Cremophor EL:H2O (1:1:8)): in the range of those achieved in patients at a clinically safe dose levels for up to 8 hours
DNA damage (yH2A.X) [4, 10]: did not increase DNA damage (yH2A.X)
apoptosis (cleaved-Caspase 3) [4, 10]: did not increase
apoptosis ([4]; in the tumor, compared to radiotherapy alone): did strongly increase apoptosis specifically in the tumor compared to radiotherapy alone
mitotic population ([5]; all doses, 24 hours after administration): reverted to baseline levels
mitotic enrichment in brain tumors (p-H3 staining) ([5]; different doses, brains collected 6 hours after administration): dose-dependently induced mitotic enrichment in brain tumors in vivo
mitotic enrichment ([5]; given concomitantly with chemo-radiotherapy involving temozolomide): can induce mitotic enrichment
mitotic enrichment ([5]; given concomitantly with radiotherapy alone): can induce mitotic enrichment
doses achieving the most clear increases in mitotic enrichment ([5]; p-H3 staining, GSC457 tumors): ≥ 50 mg/kg
repeated induction of mitotic enrichment ([5]; second 50 mg/kg dose 24 or 48 hours after the first, 6 hours after administration): feasible without loss of efficiency when a waiting period of 24 hours or longer is observed between subsequent doses
survival (GBM8 tumors; [11]): extended survival
tumor growth (GBM8 tumors; [11]): further slowed down tumor growth
efficacy (tumor growth, survival) (GBM8 tumors; ABT-751 administered after radiotherapy): Increased efficacy could not be observed
survival (GBM8 tumors; [12]): did not affect
tumor growth (GBM8 tumors; [12]): did not affect tumor growth
survival benefit ([6]; ABT-751 6 hours prior to RT, fractions of 1 Gy): doubled the survival benefit that was achieved by RT alone
survival benefit ([6]; ABT-751 administered after RT): did not achieve a survival benefit
mitotic enrichment [7, 9]: could not induce mitotic enrichment when cells were irradiated prior to exposure
G1 cells (DNA 2N, pHH3-) [7, 13]: at the expense of G1 cells
S phase cells (DNA 2N-4N, pHH3-) [7, 13]: stay unaffected
amount of G2 cells (DNA 4N, pHH3-) [7, 13]: appears to increase slightly
percentage of mitotic cells (DNA 4N, pHH3+) [7, 13]: dose-dependently increases the percentage of mitotic cells
G2 phase of the cell cycle [7, 14]: unaffected
mitotic population over time and after wash-out (reversibility) [7, 14]: induces a time-dependent increase of the mitotic population that reverts back to pre-exposure levels after the drug is removed
concentration at which maximum achievable mitotic enrichment was achieved ([7]; within 6 hours, all cell lines tested): 1 µM
effect of RT on tumor growth and mouse survival (GSC457 tumors; 50 mg/kg ABT-751 6 hours prior to 4 Gy RT, 4 days/week): could be enhanced by given ABT-751 6 hours prior to every fraction of radiotherapy
radiosensitizing effect (GSC457 tumors; RT administered prior to ABT-751, 4 days/week): a similar radiosensitizing effect could not be observed
viability (cytotoxicity) [8]: No loss of viability was observed up to 10 hours of exposure
